As usually defined, the MIC is the lowest concentration that inhibits growth of the organism. Lower therefore signals inhibition by little substance.

Where no end group is shown, it is not given here. {C12NH2} = aliphatic C12 spacer ending in a primary amine, used to couple the probe to the polymer

The subject of data set [1] is Noncomplementary detection probe. Briefly: Hybridization of biotinylated detection probe to coated polypropylene microwells (SA-HRP, A655). It is filed as binding. To be noted: 50 fmole probe per well, n=3. The protocol:
(§1) The DNA-polymer was applied to microplate wells (polypropylene plates from Corning Costar Corporation, Cambridge, Mass.) at 10 pmole (in 0.1 ml solution) per well and incubated for 10-30 minutes. The plates containing DNA polymer solutions were illuminated for 1.5 minutes with a Dymax lamp as described herein except that a filter was used that removes light of wavelengths shorter than 300 nm. A control consisted of oligoDNA capture probe (10 pmole in 0.1 ml 50 mM phosphate buffer, pH 8.5, 1 mM EDTA) that was added to wells, allowed to adsorb for 2.5 hr., and not illuminated. The plates were washed with phosphate buffered saline containing 0.05% Tween 20 in PBS to remove unbound DNA-polymer or control oligoDNA capture probe. […]
(§2) The binding of each detection probe was assayed by subsequently adding a conjugate of streptavidin and horseradish peroxidase (SA-HRP, available from Pierce, Rockford, Ill.) and measuring the activity of the bound HRP. […] The plates were then washed with 0.05% Tween 20 in PBS, followed by addition of peroxidase substrate (TMB Microwell Peroxidase substrate system from Kirkegarrd and Perry Laboratories, Gaithersburg, Md.) and measurement of absorbance at 655 nm on a microplate reader (model 3550, Bio-Rad Labs, Cambridge, Mass.). Since the polypropylene plates were opaque, the reacted substrate solutions were transferred to polystyrene plates to read the absorbance.

Data set [2] has as its system Complementary detection probe. The data set is described as above. It is filed as binding. To be noted: 50 fmole probe per well, n=3. The protocol: as §1, §2
For data set [3] the following is noted: as obtained from Celsus Laboratories; cited from earlier work.
Data set [4] addresses T1, bovine thrombin (Bos taurus, UniProt P00735).
T1 construct: a known amount of bovine thrombin; purchased Sigma Chemical Co., St. Louis, Mo
To be noted: from Transgene Laboratories; cited from earlier work.

For data set [5], the target named is T1, bovine thrombin. Put plainly: Activities of hirudin and hirudin polymer in solution (thrombin inhibition, Chromozym TH). It is filed as biochemical. To be noted: per mg of hirudin. The protocol: The specific activities of hirudin and hirudin polymer were determined by standard protocols provided by Transgene and are expressed as antithrombin units (ATU's) per mg of hirudin. One ATU is the amount of hirudin that is required to inhibit the proteolytic activity of one NIH unit of thrombin. For these assays, a known amount of bovine thrombin (175-350 NIH units/mg., from Sigma Chemical Co., St. Louis, Mo.) was preincubated with a series of dilutions of hirudin or hirudin polymer, and the remaining thrombin activity was determined with a chromogenic substrate, Chromozym TH (from Boehringer Mannheim Corp, Indianapolis, Ind.). The specific activities of hirudin assayed before and after incorporation into the hirudin polymer were 11,710 and 10,204 ATU/mg, respectively. Therefore incorporation of hirudin into the polymer produced only a 13% decrease in its activity.

In data set [6] the test system is Escherichia coli (ATCC No. 25922). It is filed as cell-based. To be noted: in solution. The procedure: (§3) Magainin is a cationic peptide antibiotic that was originally isolated from the skin of Xenopus laevis. It is active against a broad spectrum of pathogens and acts at the surface of the pathogens. The activity of the magainin polymer was evaluated by a standard solution assay, which determined the minimum inhibitory concentration (MIC) of magainin polymer that was required to prevent the growth of bacteria.

Data set [7] relates to Staphylococcus epidermidis (ATCC No. 12228). It is filed as cell-based. To be noted: in solution. The procedure:
as §3

“5′-GTCTGAGTCGGAGCCAGGGCGGCCGCCAACAGCAGGAGCA (DNA GTCTGAGTCGGAGCCAGGGCGGCCGCCAACAGCAGGAGCA; DNA, 5' {C12NH2}, backbone not given here; coupled via 5' amine to photoreactive NOS polymer) [oligo DNA capture probe]”: the “Hybridization Signals (A655), Noncomplementary detection probe” value in data set [1] is 0.033 ± 0.001. Moreover, the “Hybridization Signals (A655), Complementary detection probe” value in data set [2] was 0.037 ± 0.005.

For heparin [Unbleached heparin], the heparin activity in data set [3] was 152 units/mg. Consider hirudin, for which, in data set [4], the “activity of recombinant hirudin as obtained” value is given as 16,500±2000 ATU/mg. Also, the specific activity in data set [5] was 11,710 ATU/mg. For “magainin polymer: photoreactive polyacrylamide containing magainin ligand (SEQ ID NO:14) (GIGKFLHSAKKFGKAFVGEIMNSC; not fully specified (residue 24); printed as Gly Ile Gly Lys Phe Leu His Ser Ala Lys Lys Phe Gly Lys Ala Phe Val Gly Glu Ile Met Asn Ser Cys; also: in photoreactive polyacrylamide)”, the MIC in data set [6] and in data set [7] was 50 µg/mL each time.

These data come from US6514734B1, “Polybifunctional reagent having a polymeric backbone and latent reactive moieties and bioactive groups” (Surmodics, Inc., priority 1997, dated 2003).
